Reference: ChEMBL document CHEMBL1857833, “Screening and optimization of specific chemical series against human African Trypanosomiasis (HAT)”
In brackets after ≈: the same amount, converted by molar mass.

Columns and labels:
Trypanosoma brucei = experiment: DNDI: Inhibition of Human African Trypanosomiasis, SBRI 427, in vitro; assay type: functional, organism-based; conditions: Trypanosoma brucei, SBRI 427; read-out: IC50
[1] = DNDI: Cytotoxicity against L929 mouse fibroblasts, 72 hour.; assay type: toxicity, cell-based; conditions: mouse, L929 mouse fibroblasts
[2] = DNDI: Cytotoxicity against L929 mouse fibroblasts, CYTO-SP, 24 hour; assay type: toxicity, cell-based; conditions: mouse, L929 mouse fibroblasts
in vitro = conditions: mouse, liver microsomes, t (1 / 2)
Description: DNDI: half life in mouse liver microsomes at a concentration of 1uM

[3] = mouse, microsomes, 1 µM
Description: DNDI: in vitro intrinsic clearance in mouse liver microsomes at a concentration of 1uM

Structure (SMILES) | IC50 (Trypanosoma brucei) [µg/mL] | half-life at 1 µM (in vitro) [min] | CLint in vitro [3] [µL/min/mg] | IC50 at 72 h [1] [µg/mL] | IC50 at 24 h [2] [µg/mL]
CCCC(CCC)NCc1coc(-c2ccc(Cl)cc2)n1 | 2.08 (≈ 6.78 µM) | – | – | 5.72 (≈ 18.6 µM) | 38.4 (≈ 125 µM)
CCCOc1ccc(-c2nc(CNC[C@@H]3CC[C@H]4C[C@@H]3C4(C)C)co2)cc1 | 0.74 (≈ 2.01 µM) | – | – | < 3.13 | 16 (≈ 43.5 µM)
C[C@@H](NCc1coc(-c2ccc(Cl)cc2)n1)C1CCCCC1 | 1.74 (≈ 5.46 µM) | – | – | < 3.13 | > 50
CCCOc1ccc(-c2nc(CNC3CCCCCC3)co2)cc1 | 1.25 (≈ 3.81 µM) | – | – | < 3.13 | 15.8 (≈ 48.1 µM)
CCCCCC(C)NC(=O)c1coc(-c2ccccc2)n1 (stereo unspecified) | > 5 | – | – | 27.2 (≈ 95 µM) | > 50
CCCCCC(C)NCc1coc(-c2ccc(F)cc2)n1 (stereo unspecified) | 2.71 (≈ 9.33 µM) | – | – | 7.1 (≈ 24.5 µM) | 17 (≈ 58.5 µM)
COc1ccc(/C(=N/O)Nc2cccc(-c3ccccc3)c2)cc1 | – | 13 | 66 | > 10 | –
CCCCCC(C)NCc1coc(-c2cccc(C)c2)n1 (stereo unspecified) | 3.33 (≈ 11.6 µM) | – | – | 7.13 (≈ 24.9 µM) | 16 (≈ 55.9 µM)
CCCCC[C@@H](C)NCc1coc(-c2ccc(Cl)cc2)n1 | 0.92 (≈ 3 µM) | – | – | 3.18 (≈ 10.4 µM) | > 50
Clc1ccc(-c2nc(CNc3ccccc3)co2)cc1 | > 5 | – | – | 10.5 (≈ 36.9 µM) | > 50
CCCCc1ccc(-c2nc(CNCc3ccc(OC)cc3)co2)cc1 | – | 53 | 16 | 3.13 (≈ 8.93 µM) | –
CCOc1ccc(-c2nc(CNC3C[C@@H]4C[C@H]([C@@H]3C)C4(C)C)co2)cc1 (stereo partly specified) | > 5 | – | – | 3.64 (≈ 10.3 µM) | > 50
CCCCCC(C)OCc1coc(-c2ccccc2)n1 (stereo unspecified) | > 5 | – | – | 27.7 (≈ 101 µM) | > 50
CC1(C)[C@H]2CC[C@@H](CNCc3ccc(-c4ccccc4)s3)[C@@H]1C2 | 1.02 (≈ 3.13 µM) | – | – | 6.63 (≈ 20.4 µM) | > 50
CCCCCC(C)NCc1coc(-c2cccs2)n1 (stereo unspecified) | 3.83 (≈ 13.8 µM) | – | – | 13.5 (≈ 48.6 µM) | > 50
CCCCCC(C)NCc1coc(-c2cc(F)ccc2F)n1 (stereo unspecified) | 2.69 (≈ 8.72 µM) | – | – | 13.2 (≈ 42.7 µM) | 36 (≈ 117 µM)
CCOc1ccc(-c2nc(CNC3CC4CCC3C4)co2)cc1 (stereo unspecified) | 4.1 (≈ 13.1 µM) | – | – | 4.62 (≈ 14.8 µM) | 35 (≈ 112 µM)
CCCCCC(C)NCc1coc(-c2cccc(F)c2F)n1 (stereo unspecified) | 4.08 (≈ 13.2 µM) | – | – | 10.7 (≈ 34.5 µM) | > 50
Clc1ccc(-c2nc(CN[C@]34C[C@H]5C[C@H](C[C@H](C5)C3)C4)co2)cc1 | > 5 | – | – | 37.6 (≈ 110 µM) | > 50

Second part, led by results:

IC50 (Trypanosoma brucei) [µg/mL] | half-life at 1 µM (in vitro) [min] | CLint in vitro [3] [µL/min/mg] | Structure (SMILES) | IC50 at 72 h [1] [µg/mL] | IC50 at 24 h [2] [µg/mL]
2.42 (≈ 7.89 µM) | – | – | CCCCCC(C)NCc1coc(-c2ccccc2Cl)n1 (stereo unspecified) | 7.17 (≈ 23.4 µM) | 17 (≈ 55.4 µM)
1.45 (≈ 4.07 µM) | – | – | CCCCCC(C)NCc1coc(-c2cccc(OC(F)(F)F)c2)n1 (stereo unspecified) | 6.48 (≈ 18.2 µM) | > 50
> 5 | – | – | Clc1ccsc1-c1nc(CNC2[C@H]3C[C@@H]4C[C@@H](C[C@H]2C4)C3)co1 (stereo partly specified) | 10.6 (≈ 30.3 µM) | > 50
1.35 (≈ 4.8 µM) | – | – | CCCCCC(C)NCc1ccccc1-c1ccccc1 (stereo unspecified) | 4.68 (≈ 16.6 µM) | > 50
> 5 | – | – | CCCCC[C@@H](C)N(Cc1coc(-c2ccc(Cl)cc2)n1)Cc1coc(-c2ccc(Cl)cc2)n1 | > 50 | > 50
0.69 (≈ 1.88 µM) | – | – | CCCOc1ccc(-c2nc(CNC3[C@H]4C[C@@H]5C[C@@H](C[C@H]3C5)C4)co2)cc1 (stereo partly specified) | 3.67 (≈ 10 µM) | > 50
3.38 (≈ 11.8 µM) | – | – | CCCCCC(C)NCc1cc(-c2ccccc2)nn1C (stereo unspecified) | 12.7 (≈ 44.5 µM) | 50 (≈ 175 µM)
> 5 | – | – | CCOc1ccc(-c2nc(CNCc3ccccc3)co2)cc1 | 18.1 (≈ 58.6 µM) | > 50
> 5 | – | – | CCCCCC(C)NCc1noc(-c2ccccc2)n1 (stereo unspecified) | 30.7 (≈ 112 µM) | 50 (≈ 183 µM)
5 (≈ 18.4 µM) | – | – | CCCCCC(C)NCc1cc(-c2ccccc2)on1 (stereo unspecified) | 12.9 (≈ 47.3 µM) | 32 (≈ 117 µM)
> 5 | – | – | CCN(CC)Cc1coc(-c2ccc(Cl)cc2)n1 | 39.5 (≈ 149 µM) | > 50
> 5 | – | – | CCOc1ccc(-c2nc(CN[C@]34C[C@H]5C[C@H](C[C@H](C5)C3)C4)co2)cc1 | 28.4 (≈ 80.5 µM) | > 50
> 5 | – | – | CCOc1ccc(-c2nc(CN(C)Cc3coc(-c4ccc(OCC)cc4)n3)co2)cc1 | > 50 | > 50
